Reference: patent publication US20220323406A1, “METHODS AND COMPOSITIONS FOR DIFFERENTIATING STEM CELLS” (Massachusetts Institute of Technology, priority 2019, published 2022)
“Also recorded” adds a separate entry of the source.

How the values were obtained:
[1] = tested on: ENR+CD organoids (ISC to Paneth cell differentiation); experiment: Primary screen: basal (non-stimulated) lysozyme secretion LYZ.NS, 2.5-D 384-well ENR+CD organoid differentiation; assay type: cell-based, mouse
Source text: (§1) High-throughput screening.

[2] = tested on: ENR+CD organoids (ISC to Paneth cell differentiation); experiment: Primary screen: CCh-stimulated lysozyme secretion LYZ.S, 2.5-D 384-well ENR+CD organoid differentiation; assay type: cell-based, mouse; conditions: for Dose.FC.LYZ.S: primary screen
Source text: as §1

ENR+CD organoids = experiment: Primary screen: ATP (CellTiter-Glo 3D, CTG) cell number/viability, 2.5-D 384-well ENR+CD organoids; conditions: primary screen;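 also: compounds given at plating and again on day 3 over a 6-day differentiation from ENR+CV stem-cell-enriched precursors, ATP measured on day 6, plate median as control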
[3] = primary screen, dose 0.08 uM, standard z score
[4] = primary screen, dose 0.40 uM, standard z score
[5] = primary screen, dose 2.00 uM, standard z score
[6] = primary screen, dose 10.00 uM, standard z score
[7] = dose 0.08 uM, FC vs plate median
[8] = dose 0.40 uM, FC vs plate median
[9] = dose 2.00 uM, FC vs plate median
[10] = dose 10.00 uM, FC vs plate median
[11] = dose 0.08 uM, FC relative to plate median
[12] = dose 0.40 uM, FC relative to plate median
[13] = dose 2.00 uM, FC relative to plate median
[14] = dose 10.00 uM, FC relative to plate median

Compound	Dose.FC.LYZ.S ([2]; dose 0.08 uM) [log2 fold change]	Dose.FC.LYZ.S ([2]; dose 0.40 uM) [log2 fold change]	Dose.FC.LYZ.S ([2]; dose 2.00 uM) [log2 fold change]	Dose.FC.LYZ.S ([2]; dose 10.00 uM) [log2 fold change]	Dose.FC.CTG (ENR+CD organoids; dose 0.08 uM) [log2 fold change]	Dose.FC.CTG (ENR+CD organoids; dose 0.40 uM) [log2 fold change]	Dose.FC.CTG (ENR+CD organoids; dose 2.00 uM) [log2 fold change]	Dose.FC.CTG (ENR+CD organoids; dose 10.00 uM) [log2 fold change]	Z.CTG (standard z score) (ENR+CD organoids; dose 0.08 uM)	Z.CTG (standard z score) (ENR+CD organoids; dose 0.40 uM)	Z.CTG (standard z score) (ENR+CD organoids; dose 2.00 uM)	Z.CTG (standard z score) (ENR+CD organoids; dose 10.00 uM)	also measured
Nc1nc(CC(=O)Nc2ccc(CCNC[C@H](O)c3ccccc3)cc2)cs1 [Mirabegron]													Z.LYZ.NS [1, 3]: 1.201; Z.LYZ.NS [1, 4]: −0.259; Z.LYZ.NS [1, 5]: −0.301; Z.LYZ.NS [1, 6]: 0.193; Dose.FC.LYZ.NS ([1]; primary screen; dose 0.08 uM; FC vs plate median): 0.138 log2 fold change; Dose.FC.LYZ.NS ([1]; primary screen; dose 0.40 uM; FC vs plate median): −0.030 log2 fold change; Dose.FC.LYZ.NS ([1]; primary screen; dose 2.00 uM; FC vs plate median): −0.035 log2 fold change; Dose.FC.LYZ.NS ([1]; primary screen; dose 10.00 uM; FC vs plate median): 0.022 log2 fold change; Dose.FC.LYZ.S [2, 7]: 0.148 log2 fold change; Dose.FC.LYZ.S [2, 8]: −0.016 log2 fold change; Dose.FC.LYZ.S [2, 9]: −0.049 log2 fold change; Dose.FC.LYZ.S [2, 10]: −0.010 log2 fold change; Dose.FC.CTG (ENR+CD organoids; [7]): 0.029 log2 fold change; Dose.FC.CTG (ENR+CD organoids; [8]): −0.335 log2 fold change; Dose.FC.CTG (ENR+CD organoids; [9]): 0.019 log2 fold change; Dose.FC.CTG (ENR+CD organoids; [10]): −0.051 log2 fold change
CCOC(=O)C1=C(C)NC(C)=C(C(=O)OC)C1c1cccc(Cl)c1Cl (centres unmarked) [Felodipine]	0.008	−0.042	−0.003	−0.067	−0.078	−0.319	0.011	0.032					Dose.FC.LYZ.NS ([1]; primary screen, dose 0.08 uM): 0.001 log2 fold change; Dose.FC.LYZ.NS ([1]; primary screen, dose 0.40 uM): −0.033 log2 fold change; Dose.FC.LYZ.NS ([1]; primary screen, dose 2.00 uM): 0.002 log2 fold change; Dose.FC.LYZ.NS ([1]; primary screen, dose 10.00 uM): −0.056 log2 fold change; Z.LYZ.NS ([1]; primary screen, standard z score, dose 0.08 uM): 0.010; Z.LYZ.NS ([1]; primary screen, standard z score, dose 0.40 uM): −0.284; Z.LYZ.NS ([1]; primary screen, standard z score, dose 2.00 uM): 0.017; Z.LYZ.NS ([1]; primary screen, standard z score, dose 10.00 uM): −0.487
C[C@H](Cn1cnc2c(N)ncnc21)OCP(=O)(O)O [Tenofovir]	0.045	−0.080	−0.171	−0.271	0.019	−0.084	−0.129	−0.337	0.045	−0.200	−0.308	−0.804	Dose.FC.LYZ.NS ([1]; primary screen, dose 0.08 uM): 0.077 log2 fold change; Z.LYZ.NS (standard z score) ([1]; primary screen, dose 0.08 uM): 0.673; Dose.FC.LYZ.NS ([1]; primary screen, dose 0.40 uM): −0.076 log2 fold change; Z.LYZ.NS (standard z score) ([1]; primary screen, dose 0.40 uM): −0.662; Dose.FC.LYZ.NS ([1]; primary screen, dose 2.00 uM): −0.132 log2 fold change; Z.LYZ.NS (standard z score) ([1]; primary screen, dose 2.00 uM): −1.153; Dose.FC.LYZ.NS ([1]; primary screen, dose 10.00 uM): −0.218 log2 fold change; Z.LYZ.NS (standard z score) ([1]; primary screen, dose 10.00 uM): −1.899
Cc1[nH]c(/C=C2\C(=O)Nc3ccc(S(=O)(=O)N(C)c4cccc(Cl)c4)cc32)c(C)c1C(=O)N1CCN(C)CC1 [SU11274]													Dose.FC.LYZ.NS ([1]; primary screen, dose 0.08 uM, FC relative to plate median): 0.084 log2 fold change; Z.LYZ.NS [1, 3]: 0.735; Dose.FC.LYZ.NS ([1]; primary screen, dose 0.40 uM, FC relative to plate median): 0.120 log2 fold change; Z.LYZ.NS [1, 4]: 1.043; Dose.FC.LYZ.NS ([1]; primary screen, dose 2.00 uM, FC relative to plate median): 0.005 log2 fold change; Z.LYZ.NS [1, 5]: 0.047; Dose.FC.LYZ.NS ([1]; primary screen, dose 10.00 uM, FC relative to plate median): −0.207 log2 fold change; Z.LYZ.NS [1, 6]: −1.804; Dose.FC.LYZ.S [2, 11]: 0.115 log2 fold change; Dose.FC.LYZ.S [2, 12]: 0.298 log2 fold change; Dose.FC.LYZ.S [2, 13]: 0.008 log2 fold change; Dose.FC.LYZ.S [2, 14]: −0.300 log2 fold change; Dose.FC.CTG (ENR+CD organoids; [11]): 0.357 log2 fold change; Dose.FC.CTG (ENR+CD organoids; [12]): 0.270 log2 fold change; Dose.FC.CTG (ENR+CD organoids; [13]): 0.058 log2 fold change; Dose.FC.CTG (ENR+CD organoids; [14]): −0.818 log2 fold change
COc1cc(CCc2cc(NC(=O)c3ccc(N4CC(C)NC(C)C4)cc3)n[nH]2)cc(OC)c1 (centres unmarked) [AZD4547]	0.157	0.083	0.074	−0.049	0.160	0.101	−0.010	−0.062	0.382	0.241	−0.024	−0.147	
C[N+](C)(C)CCOC(N)=O.[Cl-] [CCh, carbamoylcholine chloride, reference compound]													secreted LYZ in LYZ.NS assay, CCh-stimulated vs non-stimulated ENR+CD controls ([1]; 10 uM CCh; adj. p<0.0001): significantly greater; secreted LYZ in LYZ.S assay, controls subsequently stimulated with CCh vs non-stimulated ([2]; 10 uM CCh, adj. p<0.05): showed significant differences; also recorded: significant increase in secreted LYZ
CC(C)C[C@H](NC(=O)[C@H](Cc1ccccc1)NC(=O)c1cnccn1)B(O)O [Bortezomib (PS-341)]	−0.239	−0.173	−0.249	−0.238	−1.904	−2.146	−0.915	−1.359	−4.547	−5.127	−2.185	−3.246	
CC1=C(/C=C/C(C)=C/C=C/C(C)=C\C(=O)O)C(C)(C)CCC1 [Isotretinoin]													Z.LYZ.NS (standard z score) ([1]; primary screen, dose 0.40 uM): 0.407; Z.LYZ.NS (standard z score) ([1]; primary screen, dose 2.00 uM): 0.578; Z.LYZ.NS (standard z score) ([1]; primary screen, dose 10.00 uM): 0.718
CNC(=O)c1cc(Oc2ccc(NC(=O)Nc3cc(C(C)(C)C)nn3-c3ccc4ncccc4c3)c(F)c2)ccn1 [Rebastinib, reference compound]													primary screen hit call (SSMD and z-scored FC cutoffs in both LYZ assays) ([1]; LYZ.NS and LYZ.S; 0.08-10 uM, 6 days ENR+CD): excluded from the hit list due to underperformance on all three assays compared to Bosutinib
KX2-391									−1.796	−2.989	−4.737	−3.377	Dose.FC.LYZ.NS (log2 fold change) ([1]; primary screen, dose 0.08 uM): −0.283; Z.LYZ.NS (standard z score) ([1]; primary screen, dose 0.08 uM): −2.468; Z.LYZ.NS (standard z score) ([1]; primary screen, dose 0.40 uM): −2.546; Dose.FC.LYZ.NS (log2 fold change) ([1]; primary screen, dose 2.00 uM): −0.251; Z.LYZ.NS (standard z score) ([1]; primary screen, dose 2.00 uM): −2.188; Dose.FC.LYZ.NS (log2 fold change) ([1]; primary screen, dose 10.00 uM): −0.286; Z.LYZ.NS (standard z score) ([1]; primary screen, dose 10.00 uM): −2.494
C=CC(=O)Nc1cccc(Oc2nc(Nc3ccc(N4CCN(C)CC4)cc3OC)ncc2Cl)c1 [WZ4002]	0.114	0.046	−0.109	−0.319	0.313	0.082	0.151	−0.941	0.748	0.196	0.360	−2.248	
O=c1cc(-c2cccc3c2Sc2ccccc2S3)oc(N2CCOCC2)c1 [KU-55933 (ATM Kinase Inhibitor)]									1.251	1.140	1.317	1.293	
